Experimental data taken from patent US9593123B2, “Triazolo[4,5-D]pyrimidine derivatives” (Hoffmann-La Roche Inc., priority 2013, dated 2017).

Columns and labels:
human CB1 receptor = human CB1 receptor (Homo sapiens (Human), UniProt P21554); experiment: cAMP assay, CHO cells expressing human CB1 receptors; format: cell-based; conditions: functional cAMP assay, read-out: CB1 hcAMP EC50
Method: (§1) CHO cells expressing human CB1 or CB2 receptors are seeded 17-24 hours prior to the experiment 50.000 cells per well in a black 96 well plate with flat clear bottom (Corning Costar #3904) in DMEM (Invitrogen No. 31331), 1×HT supplement, with 10% fetal calf serum and incubated at 5% CO2 and 37° C. in a humidified incubator. The growth medium was exchanged with Krebs Ringer Bicarbonate buffer with 1 mM IBMX and incubated at 30° C. for 30 min. Compounds were added to a final assay volume of 100 μl and incubated for 30 min at 30° C. Using the cAMP-Nano-TRF detection kit the assay (Roche Diagnostics) was stopped by the addition of 50 μl lysis reagent (Tris, NaCl, 1.5% Triton X100, 2.5% NP40, 10% NaN3) and 50 μl detection solutions (20 μM mAb Alexa700-cAMP 1:1, and 48 μM Ruthenium-2-AHA-cAMP) and shaken for 2 h at room temperature. The time-resolved energy transfer is measured by a TRF reader (Evotec Technologies GmbH), equipped with a ND:YAG laser as excitation source. The plate is measured twice with the excitation at 355 nm and at the emission with a delay of 100 ns and a gate of 100 ns, total exposure time 10 s at 730 (bandwidth 30 nm) or 645 nm (bandwidth 75 nm), respectively. The FRET signal is calculated as follows: FRET=T730-Alexa730-P(T645-B645) with P=Ru730-B730/Ru645-B645, where T730 is the test well measured at 730 nM, T645 is the test well measured at 645 nm, B730 and B645 are the buffer controls at 730 nm and 645 nm, respectively. cAMP content is determined from the function of a standard curve spanning from 10 μM to 0.13 nM cAMP.
(§2) EC50 values were determined using Activity Base analysis (ID Business Solution, Limited). The EC50 values for a wide range of cannabinoid agonists generated from this assay were in agreement with the values published in the scientific literature.

human CB2 receptor = human CB2 receptor (Homo sapiens (Human), UniProt P34972); experiment: cAMP assay, CHO cells expressing human CB2 receptors; format: cell-based; conditions: functional cAMP assay, read-out: CB2 hcAMP EC50
Method: as §1, §2

human CB2 receptor, sequence (P34972 whole entry): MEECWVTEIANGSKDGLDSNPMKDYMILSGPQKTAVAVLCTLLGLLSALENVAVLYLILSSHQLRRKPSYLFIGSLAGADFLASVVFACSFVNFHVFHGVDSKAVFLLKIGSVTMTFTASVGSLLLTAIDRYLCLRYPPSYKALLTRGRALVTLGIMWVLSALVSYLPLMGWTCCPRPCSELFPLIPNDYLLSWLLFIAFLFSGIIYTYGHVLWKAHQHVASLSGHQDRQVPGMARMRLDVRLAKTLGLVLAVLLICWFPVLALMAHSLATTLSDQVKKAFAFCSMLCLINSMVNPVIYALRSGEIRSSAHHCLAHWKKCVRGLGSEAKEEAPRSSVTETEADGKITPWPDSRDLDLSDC
human CB1 receptor, sequence (P21554 whole entry): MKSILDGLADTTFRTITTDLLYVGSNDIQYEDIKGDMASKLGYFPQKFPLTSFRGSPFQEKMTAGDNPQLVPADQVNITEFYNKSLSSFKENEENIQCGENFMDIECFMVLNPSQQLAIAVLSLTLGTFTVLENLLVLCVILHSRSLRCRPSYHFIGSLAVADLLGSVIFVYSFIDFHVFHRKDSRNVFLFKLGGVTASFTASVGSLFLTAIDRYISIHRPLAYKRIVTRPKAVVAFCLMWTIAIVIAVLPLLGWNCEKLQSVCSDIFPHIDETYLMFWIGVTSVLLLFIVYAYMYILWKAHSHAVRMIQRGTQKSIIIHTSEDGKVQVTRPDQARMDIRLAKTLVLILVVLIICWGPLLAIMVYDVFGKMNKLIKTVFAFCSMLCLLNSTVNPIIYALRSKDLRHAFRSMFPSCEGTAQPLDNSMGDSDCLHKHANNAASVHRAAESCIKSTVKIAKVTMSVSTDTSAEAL

For `FC1(F)CCN(c2nc(C3CCC3)nc3c2nnn3Cc2ccccc2Cl)C1` [Example 1, 3-[(2-Chlorophenyl)methyl]-5-cyclobutyl-7-(3,3-difluoropyrrolidin-1-yl)triazolo[4,5-d]pyrimidine], the EC50 (human CB1 receptor) was > 10000 nM and the EC50 (human CB2 receptor) was 1 nM.

`COc1ccc(Cn2nnc3c(N4CCC(F)(F)C4)nc(C4CC4)nc32)cc1` [Example 2, 5-Cyclopropyl-7-(3,3-difluoropyrrolidin-1-yl)-3-[(4-methoxyphenyl)methyl]triazolo [4,5-d]pyrimidine] was tested, and the EC50 (human CB1 receptor) was > 10000 nM and the EC50 (human CB2 receptor) was 6.4 nM.

Molecule `CC(C)c1nc(N2CCC(F)(F)C2)c2nnn(Cc3ccccc3Cl)c2n1` [Example 3, 3-[(2-Chlorophenyl)methyl]-7-(3,3-difluoropyrrolidin-1-yl)-5-isopropyl-triazolo[4,5-d]pyrimidine] has an EC50 (human CB1 receptor) of 770 nM and an EC50 (human CB2 receptor) of 0.5 nM.

`FC1(F)CCN(c2nc(C3CC3)nc3c2nnn3Cc2ccccc2Cl)C1` [Example 4, 3-[(2-Chlorophenyl)methyl]-5-cyclopropyl-7-(3,3-difluoropyrrolidin-1-yl)triazolo[4,5-d]pyrimidine] showed an EC50 (human CB1 receptor) of 750 nM and an EC50 (human CB2 receptor) of 1 nM.

With `Cc1nonc1Cn1nnc2c(N3CCC(F)(F)C3)nc(C3CC3)nc21` [Example 5, 3-[[5-Cyclopropyl-7-(3,3-difluoropyrrolidin-1-yl)triazolo[4,5-d]pyrimidin-3-yl]methyl]-4-methyl-1,2,5-oxadiazole] the EC50 (human CB1 receptor) was > 10000 nM and the EC50 (human CB2 receptor) was 1 nM.

With `C=C(C)c1nc(N2CC[C@H](O)C2)c2nnn(Cc3ccccc3Cl)c2n1` [Example 6, (3S)-1-[3-[(2-Chlorophenyl)methyl]-5-prop-1-en-2-yltriazolo[4,5-d]pyrimidin-7-yl]pyrrolidin-3-ol] the EC50 (human CB1 receptor) was > 10000 nM and the EC50 (human CB2 receptor) was 3.6 nM.

For `Clc1ccccc1Cn1nnc2c(N3CCCCC3)nc(N3CCCCC3)nc21` [Example 7, 3-[(2-Chlorophenyl)methyl]-5,7-di(piperidin-1-yl)triazolo[4,5-d]pyrimidine], the EC50 (human CB1 receptor) was > 10000 nM and the EC50 (human CB2 receptor) was 9.2 nM.

For `CCNc1nc(N2CCC(F)(F)C2)c2nnn(Cc3ccccc3Cl)c2n1` [Example 8, 3-[(2-Chlorophenyl)methyl]-7-(3,3-difluoropyrrolidin-1-yl)-N-ethyltriazolo[4,5-d]pyrimidin-5-amine], the EC50 (human CB1 receptor) was > 10000 nM and the EC50 (human CB2 receptor) was 4.5 nM.

For `FC1(F)CCN(c2nc(N3CCC3)nc3c2nnn3Cc2ccccc2Cl)C1` [Example 9, 5-(Azetidin-1-yl)-3-[(2-chlorophenyl)methyl]-7-(3,3-difluoropyrrolidin-1-yl)triazolo [4,5-d]pyrimidine], the EC50 (human CB1 receptor) was 363 nM and the EC50 (human CB2 receptor) was 1.6 nM.

For `FC1(F)CCN(c2nc(N3CCCC3)nc3c2nnn3Cc2ccccc2Cl)C1` [Example 10, 3-[(2-Chlorophenyl)methyl]-7-(3,3-difluoropyrrolidin-1-yl)-5-pyrrolidin-1-yltriazolo[4,5-d]pyrimidine], the EC50 (human CB1 receptor) was 217 nM and the EC50 (human CB2 receptor) was 2.9 nM.

For `FC1(F)CCN(c2nc(NC3CCC3)nc3c2nnn3Cc2ccccc2Cl)C1` [Example 11, 3-[(2-Chlorophenyl)methyl]-N-cyclobutyl-7-(3,3-difluoropyrrolidin-1-yl)triazolo[4,5-d]pyrimidin-5-amine], the EC50 (human CB1 receptor) was > 10000 nM and the EC50 (human CB2 receptor) was 2.6 nM.

For `CC(C)(C)Nc1nc(N2CCC(F)(F)C2)c2nnn(Cc3ccccc3Cl)c2n1` [Example 12, N-tert-Butyl-3-[(2-chlorophenyl)methyl]-7-(3,3-difluoropyrrolidin-1-yl)triazolo[4,5-d]pyrimidin-5-amine], the EC50 (human CB1 receptor) was 365 nM and the EC50 (human CB2 receptor) was 0.9 nM.

`CC1(Nc2nc(N3CCC(F)(F)C3)c3nnn(Cc4ccccc4Cl)c3n2)COC1` [Example 13, 3-[(2-Chlorophenyl)methyl]-7-(3,3-difluoropyrrolidin-1-yl)-N-(3-methyloxetan-3-yl)triazolo[4,5-d]pyrimidin-5-amine] was tested, and the EC50 (human CB1 receptor) was > 10000 nM and the EC50 (human CB2 receptor) was 12.5 nM.

In the case of `FC1(F)CCN(c2nc(N3CCOCC3)nc3c2nnn3Cc2ccccc2Cl)C1` [Example 14, 4-[3-[(2-Chlorophenyl)methyl]-7-(3,3-difluoropyrrolidin-1-yl)triazolo[4,5-d]pyrimidin-5-yl]morpholine], the EC50 (human CB1 receptor) is reported as > 10000 nM and the EC50 (human CB2 receptor) is reported as 3.5 nM.

`CN(c1nc(N2CCC(F)(F)C2)c2nnn(Cc3ccccc3Cl)c2n1)C(C)(C)C` [Example 15, N-tert-Butyl-3-[(2-chlorophenyl)methyl]-7-(3,3-difluoropyrrolidin-1-yl)-N-methyltriazolo[4,5-d]pyrimidin-5-amine] was tested, and the EC50 (human CB1 receptor) was 336 nM and the EC50 (human CB2 receptor) was 2.2 nM.

With `CC(C)(C)CNc1nc(N2CCC(F)(F)C2)c2nnn(Cc3ccccc3Cl)c2n1` [Example 16, 3-[(2-Chlorophenyl)methyl]-7-(3,3-difluoropyrrolidin-1-yl)-N-(2,2-dimethylpropyl) triazolo[4,5-d]pyrimidin-5-amine] the EC50 (human CB1 receptor) was > 10000 nM and the EC50 (human CB2 receptor) was 3.1 nM.

With `FC1(F)CCN(c2nc(NC3COC3)nc3c2nnn3Cc2ccccc2Cl)C1` [Example 17, 3-[(2-Chlorophenyl)methyl]-7-(3,3-difluoropyrrolidin-1-yl)-N-(oxetan-3-yl)triazolo [4,5-d]pyrimidin-5-amine] the EC50 (human CB1 receptor) was > 10000 nM and the EC50 (human CB2 receptor) was 26.6 nM.

`CN(c1nc(N2CCC(F)(F)C2)c2nnn(Cc3ccccc3Cl)c2n1)C1CCC1` [Example 18, 3-[(2-Chlorophenyl)methyl]-N-cyclobutyl-7-(3,3-difluoropyrrolidin-1-yl)-N-methyltriazolo[4,5-d]pyrimidin-5-amine] gave an EC50 (human CB1 receptor) of 967 nM and an EC50 (human CB2 receptor) of 8.1 nM.

For `COc1ccc(Cn2nnc3c(N4CC[C@H](O)C4)nc(NC(C)(C)C)nc32)cc1` [Example 19, (3S)-1-[5-(tert-Butylamino)-3-[(4-methoxyphenyl)methyl]triazolo[4,5-d]pyrimidin-7-yl]pyrrolidin-3-ol], the EC50 (human CB1 receptor) was > 10000 nM and the EC50 (human CB2 receptor) was 27.4 nM.

With `COc1ccc(Cn2nnc3c(N4CCC(F)(F)C4)nc(NC(C)(C)C)nc32)cc1` [Example 20, N-tert-Butyl-7-(3,3-difluoropyrrolidin-1-yl)-3-[(4-methoxyphenyl)methyl]triazolo [4,5-d]pyrimidin-5-amine] the EC50 (human CB1 receptor) was > 10000 nM and the EC50 (human CB2 receptor) was 20.3 nM.

`COc1ccc(Cn2nnc3c(N4CC[C@H](NC(C)=O)C4)nc(NC(C)(C)C)nc32)cc1` [Example 21, N-[(3S)-1-[5-(tert-Butylamino)-3-[(4-methoxyphenyl)methyl]triazolo[4,5-d]pyrimidin-7-yl]pyrrolidin-3-yl]acetamide] was tested, and the EC50 (human CB1 receptor) was > 10000 nM and the EC50 (human CB2 receptor) was 141 nM.

In the case of `CC(C)(C)Nc1nc(N2CCC(F)(F)C2)c2nnn(Cc3ccccc3C(F)(F)F)c2n1` [Example 22, N-tert-Butyl-7-(3,3-difluoropyrrolidin-1-yl)-3-[[2-(trifluoromethyl)phenyl]methyl]triazolo[4,5-d]pyrimidin-5-amine], the EC50 (human CB1 receptor) is reported as > 10000 nM and the EC50 (human CB2 receptor) is reported as 2.1 nM.

Work on `CC(C)(C)Nc1nc(N2CCC(F)(F)C2)c2nnn(Cc3ccccc3S(C)(=O)=O)c2n1` [Example 23, N-tert-Butyl-7-(3,3-difluoropyrrolidin-1-yl)-3-[(2-methylsulfonylphenyl)methyl]triazolo[4,5-d]pyrimidin-5-amine] yielded an EC50 (human CB1 receptor) of 487 nM and an EC50 (human CB2 receptor) of 1.1 nM.

`CC(C)(C)Nc1nc(N2CCC(F)(F)C2)c2nnn(Cc3ncccc3Cl)c2n1` [Example 24, N-tert-Butyl-3-[(3-chloropyridin-2-yl)methyl]-7-(3,3-difluoropyrrolidin-1-yl)triazolo [4,5-d]pyrimidin-5-amine] was tested, and the EC50 (human CB1 receptor) was > 10000 nM and the EC50 (human CB2 receptor) was 3.4 nM.

In the case of `Cn1nnnc1Cn1nnc2c(N3CCC(F)(F)C3)nc(NC(C)(C)C)nc21` [Example 25, N-tert-Butyl-7-(3,3-difluoropyrrolidin-1-yl)-3-[(1-methyltetrazol-5-yl)methyl]triazolo [4,5-d]pyrimidin-5-amine], the EC50 (human CB1 receptor) is reported as > 10000 nM and the EC50 (human CB2 receptor) is reported as 7.5 nM.

With `Cc1nonc1Cn1nnc2c(N3CCC(F)(F)C3)nc(NC(C)(C)C)nc21` [Example 26, N-tert-Butyl-7-(3,3-difluoropyrrolidin-1-yl)-3-[(4-methyl-1,2,5-oxadiazol-3-yl)methyl]triazolo[4,5-d]pyrimidin-5-amine] the EC50 (human CB1 receptor) was > 10000 nM and the EC50 (human CB2 receptor) was 1 nM.

For `CC(=O)N[C@H]1CCN(c2nc(NC(C)(C)C)nc3c2nnn3Cc2ncccc2Cl)C1` [Example 27, N-[(3S)-1-[5-(tert-Butylamino)-3-[(3-chloropyridin-2-yl)methyl]triazolo[4,5-d]pyrimidin-7-yl]pyrrolidin-3-yl]acetamide], the EC50 (human CB1 receptor) was > 10000 nM and the EC50 (human CB2 receptor) was 267 nM.

In the case of `CC(C)(C)Nc1nc(N2CC[C@H](O)C2)c2nnn(Cc3ccccc3Cl)c2n1` [Example 28, (3S)-1-[5-(tert-Butylamino)-3-[(2-chlorophenyl)methyl]triazolo[4,5-d]pyrimidin-7-yl]pyrrolidin-3-ol], the EC50 (human CB1 receptor) is reported as > 10000 nM and the EC50 (human CB2 receptor) is reported as 2.3 nM.
